Literature values as cited in publication PMC5895059, “Scaffold hopping from (5-hydroxymethyl) isophthalates to multisubstituted pyrimidines diminishes binding affinity to the C1 domain of protein kinase C” (PLoS ONE, 2018).

What was measured:
PKCα and -δ = target: PKCα and -δ; parameters: method as in PMID 19438240; details: for PKCα and -δ; cited from earlier work
PKCα = PKCα (Homo sapiens, UniProt P17252); details: read-out: Ki PKCα; cited from earlier work

Question: Which Ki (PKCα and -δ) does the source give for `CCCCC(CC)OC(=O)c1cc(CO)cc(C(=O)OC(CC)CCCC)c1` (centres unmarked) [HMI-1b11] here?
Answer: 0.205 to 0.915 µM

Question: Which Ki (PKCα) does the source give for `C=C(C)[C@@]12O[C@@]3(c4ccccc4)O[C@@H]1[C@@H]1[C@@H]4O[C@]4(CO)[C@@H](O)[C@]4(O)C(=O)C(C)=C[C@H]4[C@@]1(O3)[C@H](C)[C@H]2OC(=O)/C=C/C=C/c1ccccc1` [Mezerein, mezerein] here?
Answer: 0.00027 µM
